Literature values in US5939423A, “Treatment of hepatitis B infection with thymosin alpha 1 and famciclovir” (priority 1997, dated 1999).
Ends that are not written are not given here.

What was measured:
[1] = more than 3000 patients
HBV [2] = conditions: 10 day course, 250 mg or 500 mg tid
[3] = single and repeat doses up to 1000 mg three times daily for six days
duck hepatitis B virus = conditions: for maintenance of suppression of HBV DNA and DNA polymerase during treatment: 21 days of treatment; for maintenance of suppression of HBV DNA and DNA polymerase during treatment / DNA polymerase level / HBV DNA level: oral twice a day, penciclovir 20 and 100 mg/kg, famciclovir 5 and 25 mg/kg; for inhibition of duck hepatitis B viral replication: Peking duck; for HBV DNA and DNA polymerase levels after the post-dosing suppression: later than two days after dosing had stopped; for DNA polymerase level / HBV DNA level: within two days of start
HBV [4] = conditions: preliminary data; up to 500 mg three times a day for 16 weeks
HBV [5] = conditions: in vivo
[6] = not given; remark: listed apart in the source
HBV [7] = conditions: named patients
HBV [8] = tested on: HBV
HBV [9] = tested on: HBV; remark: listed apart in the source
HBV infection = conditions: treatment of HBV infection
[10] = in vivo
HBV [11] = tested on: HBV; remark: listed apart in the source
HBV [12] = conditions: 1.45 to 1.75 mg (adults) per twice-weekly injection
anti-HBs = conditions: previously non-reactive hemodialysis patients
[13] = tested on: woodchuck hepatitis virus (WHV)
T4 (helper/inducer)cells = conditions: by activation of the T4 (helper/inducer) cells
HBV [14] = tested on: HBV; remark: listed apart in the source
[15] = 12 patients received TF5 or Tα1, p<0.004 vs placebo, Fisher's exact test
[16] = during the 1 yr study or post study follow up, p<0.11 vs placebo
[17] = n = 49, 1.6 mg s.c. 2×/week, 6 months, p value 0.084 vs placebo
[18] = n = 49, 1.6 mg s.c. 2×/week, 6 months, p value ns

Compound: CC(=O)OCC(CCn1cnc2cnc(N)nc21)COC(C)=O [famciclovir, diacetylester of 6-deoxy penciclovir]
- most common adverse experiences [1]: headache, nausea and diarrhea
- fall in HBV DNA levels (HBV [2]; in 6 of 11 evaluable patients): greater than 90%
- evaluable patients with greater than 90% fall in HBV DNA levels (HBV [2]; of 11 evaluable patients): 6
- drug-related adverse effects on clinical laboratory values, blood pressure, heart rates or ECG measurements [3]: no evidence of drug-related adverse effects
- maintenance of suppression of HBV DNA and DNA polymerase during treatment (duck hepatitis B virus): maintained this suppression during the 21 days
- inhibition of duck hepatitis B viral replication (duck hepatitis B virus): clearly inhibit
- suppression of viral replication after dosing had stopped (duck hepatitis B virus): remained suppressed for at least two days
- HBV DNA and DNA polymerase levels after the post-dosing suppression (duck hepatitis B virus): returned to pre-treatment levels
- DNA polymerase level (duck hepatitis B virus): undetectable
- HBV DNA level (duck hepatitis B virus): undetectable
- absorption (oral, volunteers): well absorbed
- reduction in HBV DNA and ALT levels (HBV [4]): significant reduction
- safety profile (HBV [5]): good safety profile
- suppressing HBV replication (HBV [5]): effective in suppressing HBV replication
- conversion to penciclovir ([6]; removal of one ester group): partly in the intestinal wall
- completion of conversion to penciclovir ([6]; removal of remaining ester group, oxidation at the 6-position): completed in the liver
- efficacy in patients with HBV reinfection following liver transplantation (HBV [7]): shown efficacy

Compound: interferon-alpha
- clear HBeAg (HBV [8]; Asian patients): 15-20%
- sustained clearance of hepatitis B e antigen (HBeAg) (HBV [8]; North America and European patients): 30-40%
- clear HBsAg (HBV [8]; of the Asian patients who clear HBeAg): approximately 10%
- ultimately cleared hepatitis B surface antigen (HBsAg) (HBV [8]; of the North America and European patients with HBeAg clearance): 25-65%

Compound: Nc1ccn([C@@H]2CS[C@H](CO)O2)c(=O)n1 [lamivudine]
- safety profile (HBV [5]): good safety profile
- suppressing HBV replication (HBV [5]): effective in suppressing HBV replication

Compound: Tα1: 28 amino acid peptide with a molecular weight of 3108, initially isolated from Thymus Fraction 5, sequenced and chemically synthesized (SDAAVDTSSEITTKDLKEKKEVVEEAEN; ends and bridges not checked; UniProt P06454 2-29, looked up)
- number of patients who cleared serum HBV DNA (HBV [9]; [15]): Nine
- patients who cleared serum HBV DNA (HBV [9]; [15]): 75%
- peripheral blood lymphocyte, CD3 and CD4 counts, and in vitro production of interferon-gamma (HBV [9]; associated with response, over initial values): significant improvements
- responders with sustained remission with normal ALT levels and negative serum HBV DNA (using PCR) and HBeAg (HBV [9]; of the responders): About 78%
- side effects (HBV [9]; twice weekly for six months): No side effects were observed
- serum aminotransferase levels (HBV [9]; twice weekly for six months, conclusion of the study (1 year)): improved significantly
- immune responsiveness (HBV infection): enhances immune responsiveness
- specific lymphocyte parameters (HBV infection): augments specific lymphocyte parameters to significantly higher levels
- local or systemic side effects [10]: no local or systemic side effects have been observed
- sustained loss of HBV DNA with negative HBeAg (HBV [11]; [16]): 25%
- sustained loss of HBV DNA with negative HBeAg, number of patients (HBV [11]; [16]): 12
- CR (%) (complete response) (HBV [11]; [17]): 14%
- CR (complete response), number of patients (HBV [11]; [17]): 7
- DR (%) (delayed response) (HBV [11]; [18]): 10%
- DR (delayed response), number of patients (HBV [11]; [18]): 5
- IR (%) (incomplete response) (HBV [11]; [18]): 0%
- IR (incomplete response), number of patients (HBV [11]; [18]): 0
- modulating the maturation of T cells (T cells): activity similar to TF5
- safety and effectiveness in clearing HBV DNA from the blood (HBV [12]): safe and effective
- in vivo production of anti-HBs following Heptavax-B vaccination (anti-HBs): enhance
- lymphocyte IL2 receptor expression (normal human lymphocytes): increase
- interferon-alpha, interferon-gamma, and IL2 and IL3 production (normal human lymphocytes; normal human lymphocytes): promote
- change of WHV DNA replication intermediates from pretreatment levels ([13]; liver biopsy, the other 2 animals, end of treatment): only a small change
- treated animals with undetectable WHV DNA levels ([13]; of 6 animals, 10 μg/Kg s.c. twice weekly, 28 weeks): 4
- depression of WHV DNA levels ([13]; remaining 2 animals, 10 μg/Kg s.c. twice weekly, 28 weeks): 100 fold
- allogenic and autologous human mixed lymphocyte reactions (T4 (helper/inducer)cells): enhances

Compound: Nc1nc2c(ncn2CCC(CO)CO)c(=O)[nH]1 [penciclovir]
- maintenance of suppression of HBV DNA and DNA polymerase during treatment (duck hepatitis B virus): maintained this suppression during the 21 days
- inhibition of duck hepatitis B viral replication (duck hepatitis B virus): clearly inhibit
- suppression of viral replication after dosing had stopped (duck hepatitis B virus): remained suppressed for at least two days
- HBV DNA and DNA polymerase levels after the post-dosing suppression (duck hepatitis B virus): returned to pre-treatment levels
- DNA polymerase level (duck hepatitis B virus): undetectable
- HBV DNA level (duck hepatitis B virus): undetectable
- efficacy against herpes simplex virus (herpes simplex): proven efficacy
- Cmax (penciclovir) (oral penciclovir alone, 5 mg/kg dose): approximately 0.14 microgram/ml
- efficacy against zoster virus (zoster): proven efficacy
- reduction in HBV DNA by 6 day (HBV [14]; 1 microgram/ml, by 6 day): 50%
- reduction in HBV DNA by day 9 (HBV [14]; 1 microgram/ml, by day 9): 90%
- concentration dependence of HBV DNA reduction (HBV [14]; 2.2.15 hepatoma cells): concentration dependent
- inhibition of HBV in human cells (HBV [14]; 2.2.15 hepatoma cells): potent inhibitor
